ChEMBL document CHEMBL3885861, “Open TG-GATES”

Species: Rattus norvegicus
Experiment: Open TG-GATES - Regimen: Single
Assay type: toxicity, organism-based, Sprague-Dawley
Set-up: regimen Single, gender Male, age 6 weeks
Conditions: in vivo, po, 0 mg/kg, route gavage, dose level Control; for APTT / Bas / Eos / Fbg / Hb / Ht / Lym / MCH / MCHC / MCV / Mono / Neu / PT / Plat / RBC / Ret / WBC: tissue Blood; for KIDNEY_L / KIDNEY_R / KIDNEY_TOTAL: tissue Kidney; for LIVER: tissue Liver; for A/G / ALP / ALT / AST / BUN / CRE / Ca / Cl / DBIL / GLC / IP / K / LDH / Na / PL / RALB / TBIL / TC / TG / TP / gamma-GTP: tissue Plasma

In the case of `CC[C@@H](CO)NCCN[C@@H](CC)CO` [ETHAMBUTOL], the TERMINAL_BW (3 h) is reported as 227 g, the APTT (3 h) is reported as 21.4 s and the Bas (3 h) is reported as 0%. For the same molecule, the Eos (3 h) was 0.8%, the Fbg (3 h) was 319 mg/dL and the Hb (3 h) was 13.3 g/dL. It also gave a Ht (3 h) of 39.5%, a Lym (3 h) of 83.8% and an MCH (3 h) of 22.3 pg. For the same molecule, the MCHC (3 h) was 33.7%, the MCV (3 h) was 66.2 fL and the Mono (3 h) was 2%. The Neu (3 h) was 12.2%, the PT (3 h) was 15.9 s and the Plat (3 h) was 118.8 x10_4/uL. The RBC (3 h) was 597.6 x10_4/ul, the Ret (3 h) was 8.3% and the WBC (3 h) was 97.7 x10_2/uL. It also gave a KIDNEY_L (3 h) of 1 g, a KIDNEY_R (3 h) of 1 g and a KIDNEY_TOTAL (3 h) of 2.1 g. For the same molecule, the LIVER (3 h) was 11.4 g, the A/G (3 h) was 1.2 and the ALP (3 h) was 1599 IU/L. For the same molecule, the ALT (3 h) was 42.2 IU/L, the AST (3 h) was 73.6 IU/L and the BUN (3 h) was 14.2 mg/dL. It also gave a CRE (3 h) of 0.2 mg/dL, a Ca (3 h) of 10.4 mg/dL and a Cl (3 h) of 106.6 meq/L. The DBIL (3 h) was 0 mg/dL, the GLC (3 h) was 192.4 mg/dL and the IP (3 h) was 8.7 mg/dL. For the same molecule, the K (3 h) was 4.1 meq/L, the LDH (3 h) was 171.6 IU/L and the Na (3 h) was 144.2 meq/L. It also gave a PL (3 h) of 137.2 mg/dL, an RALB (3 h) of 3 g/dL and a TBIL (3 h) of 0.01 mg/dL. For the same molecule, the TC (3 h) was 75.6 mg/dL, the TG (3 h) was 63.8 mg/dL and the TP (3 h) was 5.3 g/dL. The gamma-GTP (3 h) was 1.6 IU/L, the TERMINAL_BW (6 h) was 224 g and the APTT (6 h) was 22.2 s. It also gave a Bas (6 h) of 0%, an Eos (6 h) of 0.8% and a Fbg (6 h) of 301.2 mg/dL. The Hb (6 h) was 13.6 g/dL, the Ht (6 h) was 39.9% and the Lym (6 h) was 82.6%. For the same molecule, the MCH (6 h) was 21.7 pg, the MCHC (6 h) was 34.1% and the MCV (6 h) was 63.8 fL. It also gave a Mono (6 h) of 2.4%, a Neu (6 h) of 13% and a PT (6 h) of 15.6 s. For the same molecule, the Plat (6 h) was 122.5 x10_4/uL, the RBC (6 h) was 624.8 x10_4/ul and the Ret (6 h) was 7.5%. It also gave a WBC (6 h) of 117.8 x10_2/uL, a KIDNEY_L (6 h) of 1 g and a KIDNEY_R (6 h) of 1 g. The KIDNEY_TOTAL (6 h) was 2 g, the LIVER (6 h) was 10 g and the A/G (6 h) was 1.2. For the same molecule, the ALP (6 h) was 1271 IU/L, the ALT (6 h) was 35 IU/L and the AST (6 h) was 66.2 IU/L. The BUN (6 h) was 11.2 mg/dL, the CRE (6 h) was 0.2 mg/dL and the Ca (6 h) was 10.3 mg/dL. It also gave a Cl (6 h) of 105.8 meq/L, a DBIL (6 h) of 0 mg/dL and a GLC (6 h) of 200.4 mg/dL. For the same molecule, the IP (6 h) was 9.2 mg/dL, the K (6 h) was 4.4 meq/L and the LDH (6 h) was 176.2 IU/L. It also gave a Na (6 h) of 141.8 meq/L, a PL (6 h) of 134.8 mg/dL and an RALB (6 h) of 2.9 g/dL. The TBIL (6 h) was 0.02 mg/dL, the TC (6 h) was 72 mg/dL and the TG (6 h) was 82.8 mg/dL. It also gave a TP (6 h) of 5.4 g/dL, a gamma-GTP (6 h) of 1.6 IU/L and a TERMINAL_BW (9 h) of 220 g. The APTT (9 h) was 22.6 s, the Bas (9 h) was 0% and the Eos (9 h) was 0.6%. The Fbg (9 h) was 288 mg/dL, the Hb (9 h) was 13.4 g/dL and the Ht (9 h) was 39.5%. It also gave a Lym (9 h) of 82.6%, an MCH (9 h) of 21.3 pg and an MCHC (9 h) of 34%. It also gave an MCV (9 h) of 62.7 fL, a Mono (9 h) of 2.4% and a Neu (9 h) of 13.2%. For the same molecule, the PT (9 h) was 16.5 s, the Plat (9 h) was 116 x10_4/uL and the RBC (9 h) was 632 x10_4/ul. The Ret (9 h) was 6.9%, the WBC (9 h) was 93.6 x10_2/uL and the KIDNEY_L (9 h) was 1 g. It also gave a KIDNEY_R (9 h) of 1 g, a KIDNEY_TOTAL (9 h) of 2 g and an LIVER (9 h) of 9.3 g. It also gave an A/G (9 h) of 1.2, an ALP (9 h) of 1394.2 IU/L and an ALT (9 h) of 37.4 IU/L. The AST (9 h) was 69.8 IU/L, the BUN (9 h) was 10.6 mg/dL and the CRE (9 h) was 0.2 mg/dL. It also gave a Ca (9 h) of 10.1 mg/dL, a Cl (9 h) of 107.8 meq/L and a DBIL (9 h) of 0.002 mg/dL. It also gave a GLC (9 h) of 180.2 mg/dL, an IP (9 h) of 9 mg/dL and a K (9 h) of 4.1 meq/L. The LDH (9 h) was 136.8 IU/L, the Na (9 h) was 142 meq/L and the PL (9 h) was 118.2 mg/dL. For the same molecule, the RALB (9 h) was 3 g/dL, the TBIL (9 h) was 0.024 mg/dL and the TC (9 h) was 68.4 mg/dL. The TG (9 h) was 37.4 mg/dL, the TP (9 h) was 5.6 g/dL and the gamma-GTP (9 h) was 1.2 IU/L. The TERMINAL_BW (24 h) was 232.7 g, the APTT (24 h) was 22.2 s and the Bas (24 h) was 0%. The Eos (24 h) was 0.8%, the Fbg (24 h) was 311.8 mg/dL and the Hb (24 h) was 13.9 g/dL. It also gave a Ht (24 h) of 39.5%, a Lym (24 h) of 82.4% and an MCH (24 h) of 22.5 pg. For the same molecule, the MCHC (24 h) was 35.1%, the MCV (24 h) was 64 fL and the Mono (24 h) was 2.4%. The Neu (24 h) was 13.4%, the PT (24 h) was 16.4 s and the Plat (24 h) was 115.4 x10_4/uL. It also gave an RBC (24 h) of 618.2 x10_4/ul, a Ret (24 h) of 6.9% and a WBC (24 h) of 99.5 x10_2/uL. It also gave a KIDNEY_L (24 h) of 1 g, a KIDNEY_R (24 h) of 1 g and a KIDNEY_TOTAL (24 h) of 2 g. For the same molecule, the LIVER (24 h) was 10.8 g, the A/G (24 h) was 1.1 and the ALP (24 h) was 1625.6 IU/L. The ALT (24 h) was 47.6 IU/L, the AST (24 h) was 73 IU/L and the BUN (24 h) was 17.2 mg/dL. It also gave a CRE (24 h) of 0.2 mg/dL, a Ca (24 h) of 10.6 mg/dL and a Cl (24 h) of 106.8 meq/L. For the same molecule, the DBIL (24 h) was 0 mg/dL, the GLC (24 h) was 199 mg/dL and the IP (24 h) was 8.1 mg/dL. The K (24 h) was 4.1 meq/L, the LDH (24 h) was 176.8 IU/L and the Na (24 h) was 142.4 meq/L. The PL (24 h) was 147.2 mg/dL, the RALB (24 h) was 3 g/dL and the TBIL (24 h) was 0.006 mg/dL. The TC (24 h) was 73.4 mg/dL, the TG (24 h) was 94.6 mg/dL and the TP (24 h) was 5.7 g/dL. The gamma-GTP (24 h) was 1.8 IU/L.
